Measured values from PubChem BioAssay AID248 (DTP/NCI, 2004).
Several values for one entry are separate records, joined by “and”; a condition that tells them apart may be missing. Equal values may be shown once. Toxic doses and inconclusive results are not listed.

System: L1210 leukemia ip in BDF1 mice, survival T/C
Experiment: NCI In Vivo Anticancer Drug Screen. Data for tumor model L1210 Leukemia (intraperitoneal) in B6D2F1 (BDF1) mice
Details: endpoint: mean survival time, higher = longer survival
How it was run: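 Survival endpoint. Drug-treated group vs vehicle group, expressed as T divided by C. Tumor passaged by transplantation.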

## O=C(Nc1ccc(C2=NCCN2)cc1)c1ccc(C(=O)Nc2ccc(C3=NCCN3)cc2)cc1
dose: 0.62 mg/kg/injection, schedule: Q#A X Z (ip), vehicle: saline
  T/C: 114 % of control
dose: 0.63 mg/kg/injection, schedule: Q01DX Z (sc), vehicle: saline
  T/C: 104 % of control
dose: 1.25 mg/kg/injection, schedule: Q01DX Z (ip), vehicle: other
  T/C: 287 % of control
dose: 1.25 mg/kg/injection, schedule: Q01DX Z (sc), vehicle: saline
  T/C: 101 % of control
dose: 1.87 mg/kg/injection, schedule: Q01DX Z (ip), vehicle: carboxymethylcellulose (CMC)
  T/C: 112 % of control
dose: 1.88 mg/kg/injection, schedule: Q03DX Z (ip), vehicle: saline
  T/C: 103 % of control
dose: 2.5 mg/kg/injection, schedule: Q01DX Z (ip), vehicle: other
  T/C: 158 % of control
dose: 2.5 mg/kg/injection, schedule: Q01DX Z (sc), vehicle: saline
  T/C: 104 % of control
dose: 3.75 mg/kg/injection, schedule: Q01DX Z (ip), vehicle: carboxymethylcellulose (CMC)
  T/C: 121 % of control
dose: 3.75 mg/kg/injection, schedule: Q03DX Z (ip), vehicle: saline
  T/C: 114 % of control
dose: 4.4 mg/kg/injection, schedule: Q01DX001 (ip), vehicle: saline
  T/C: 103 % of control
dose: 4.4 mg/kg/injection, schedule: Q07DX Z (ip), vehicle: saline
  T/C: 103 % of control
dose: 5.0 mg/kg/injection, schedule: Q01DX005 (iv), vehicle: saline
  T/C: 102 % of control
dose: 5.0 mg/kg/injection, schedule: Q01DX Z (ip), vehicle: acid diluted with saline
  T/C: 243 % of control
dose: 5.0 mg/kg/injection, schedule: Q01DX Z (ip), vehicle: other
  T/C: 179 % of control
dose: 5.0 mg/kg/injection, schedule: Q01DX Z (sc), vehicle: saline
  T/C: 101 % of control
dose: 5.0 mg/kg/injection, schedule: Q#A X Z (ip), vehicle: saline
  T/C: 194 % of control
dose: 7.5 mg/kg/injection, schedule: Q03DX Z (ip), vehicle: saline
  T/C: 115 % of control
dose: 8.8 mg/kg/injection, schedule: Q01DX001 (ip), vehicle: saline
  T/C: 97 % of control and 112 % of control
dose: 8.8 mg/kg/injection, schedule: Q07DX Z (ip), vehicle: saline
  T/C: 105 % of control
dose: 10.0 mg/kg/injection, schedule: Q01DX005 (iv), vehicle: saline
  T/C: 103 % of control
dose: 10.0 mg/kg/injection, schedule: Q01DX Z (ip), vehicle: acid diluted with saline
  T/C: 205 % of control
dose: 10.0 mg/kg/injection, schedule: Q01DX Z (iv), vehicle: acid diluted with saline
  T/C: 123 % of control
dose: 10.0 mg/kg/injection, schedule: Q01DX Z (sc), vehicle: acid diluted with saline
  T/C: 175 % of control
dose: 10.0 mg/kg/injection, schedule: Q#A X Z (ip), vehicle: saline
  T/C: 291 % of control
dose: 15.0 mg/kg/injection, schedule: Q01DX Z (ip), vehicle: carboxymethylcellulose (CMC)
  T/C: 168 % of control and 269 % of control and 197 % of control
dose: 15.6 mg/kg/injection, schedule: Q01DX Z (sc), vehicle: other
  T/C: 181 % of control
dose: 17.5 mg/kg/injection, schedule: Q01DX001 (ip), vehicle: saline
  T/C: 112 % of control and 264 % of control
dose: 20.0 mg/kg/injection, schedule: Q01DX005 (iv), vehicle: saline
  T/C: 115 % of control
dose: 20.0 mg/kg/injection, schedule: Q01DX Z (ip), vehicle: acid diluted with saline
  T/C: 158 % of control
dose: 20.0 mg/kg/injection, schedule: Q01DX Z (ip), vehicle: saline
  T/C: 316 % of control
dose: 20.0 mg/kg/injection, schedule: Q01DX Z (sc), vehicle: acid diluted with saline
  T/C: 165 % of control
dose: 20.0 mg/kg/injection, schedule: Q#A X Z (ip), vehicle: saline
  T/C: 178 % of control
dose: 30.0 mg/kg/injection, schedule: Q01DX Z (ip), vehicle: acid diluted with saline
  T/C: 182 % of control
dose: 30.0 mg/kg/injection, schedule: Q01DX Z (ip), vehicle: carboxymethylcellulose (CMC)
  T/C: 320 % of control
dose: 30.0 mg/kg/injection, schedule: Q03DX Z (ip), vehicle: saline
  T/C: 200 % of control
dose: 31.3 mg/kg/injection, schedule: Q01DX004 (im), vehicle: olive oil, sesame oil, peanut oil
  T/C: 97 % of control
dose: 31.3 mg/kg/injection, schedule: Q01DX004 (im), vehicle: saline
  T/C: 104 % of control
dose: 31.3 mg/kg/injection, schedule: Q01DX Z (ip), vehicle: other
  T/C: 112 % of control
dose: 31.3 mg/kg/injection, schedule: Q01DX Z (sc), vehicle: other
  T/C: 195 % of control
dose: 35.0 mg/kg/injection, schedule: Q07DX Z (ip), vehicle: saline
  T/C: 160 % of control
dose: 40.0 mg/kg/injection, schedule: Q01DX Z (ip), vehicle: saline
  T/C: 348 % of control
dose: 40.0 mg/kg/injection, schedule: Q#A X Z (ip), vehicle: saline
  T/C: 210 % of control
